# Laboratory results: US9079866B2, “Flap modulators” (JANSSEN PHARMACEUTICA NV, priority 2013, dated 2015)
# Counter-ions that a name gives are not always drawn.
# Target: human FLAP (Homo sapiens (Human), UniProt P20292)
# Assay: FLAP binding assay (HTRF format)
# Settings: wild type FLAP, HTRF format
# Outline: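 HTRF ratio read-out; two independent plates, samples in duplicate on each, values averaged across plates.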
# human FLAP, sequence (P20292 whole entry): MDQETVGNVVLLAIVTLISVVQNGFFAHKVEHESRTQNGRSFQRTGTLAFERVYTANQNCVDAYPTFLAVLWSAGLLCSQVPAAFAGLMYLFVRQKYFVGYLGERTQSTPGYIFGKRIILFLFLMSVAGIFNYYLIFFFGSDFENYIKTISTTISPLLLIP
row,Ki [µM],Structure (SMILES)
1,> 10,"Nc1cnc(-c2ccc(-c3ccccc3S(N)(=O)=O)cc2O)cn1 [Example 592, 4′-(5-Aminopyrazin-2-yl)-3′-hydroxybiphenyl-2-sulfonamide]"
2,> 10,"CS(=O)(=O)Nc1ccccc1-c1ccc(-c2cnc(N)cn2)cc1 [Example 593, N-[4′-(5-Aminopyrazin-2-yl)biphenyl-2-yl]methanesulfonamide]"
3,> 10,"Nc1cnc(-c2ccc(-c3ccccc3S(N)(=O)=O)cc2)cn1 [Example 594, 4′-(5-Aminopyrazin-2-yl)biphenyl-2-sulfonamide]"
4,~2.49,"CC(C)(C)NS(=O)(=O)c1ccccc1-c1ccc(-c2ccc3c(c2)CC(=O)N3)c(F)c1 [Example 595, N-tert-Butyl-3′-fluoro-4′-(2-oxo-2,3-dihydro-1H-indol-5-yl)biphenyl-2-sulfonamide]"
5,> 10,"CC(C)(C)NS(=O)(=O)c1ccccc1-c1ccc(-c2ccc3[nH]c(=O)[nH]c(=O)c3c2)c(F)c1 [Example 596, N-tert-Butyl-4′-(2,4-dioxo-1,2,3,4-tetrahydroquinazolin-6-yl)-3′-fluorobiphenyl-2-sulfonamide]"
6,> 10,"CC(C)(C)NS(=O)(=O)c1ccccc1-c1ccc(-c2cnc(N)c(C(=O)O)n2)c(F)c1 [Example 598, 3-Amino-6-[2′-(tert-butylsulfamoyl)-3-fluorobiphenyl-4-yl]pyrazine-2-carboxylic acid]"
7,> 10,"NC(=O)CS(=O)(=O)c1ccccc1-c1ccc(-c2cnc(N)nc2)c(F)c1 [Example 599, 2-{[4′-(2-Aminopyrimidin-5-yl)-3′-fluorobiphenyl-2-yl]sulfonyl}acetamide]"
8,> 10,"CCN(CC)C(=O)CS(=O)(=O)c1ccccc1-c1ccc(-c2cnc(N)nc2)c(F)c1 [Example 600, 2-{[4′-(2-Aminopyrimidin-5-yl)-3′-fluorobiphenyl-2-yl]sulfonyl}-N,N-diethylacetamide]"
9,> 10,"Nc1ncc(-c2ccc(-c3ccccc3S(=O)(=O)CC(=O)N3CCOCC3)cc2F)cn1 [Example 601, 5-{3-Fluoro-2′-[(2-morpholin-4-yl-2-oxoethyl)sulfonyl]biphenyl-4-yl}pyrimidin-2-amine]"
10,0.336,"Nc1cnc(-c2ccc(-c3ccccc3OCCO)cc2F)cn1 [Example 628, 2-{[4′-(5-Aminopyrazin-2-yl)-3′-fluorobiphenyl-2-yl]oxy}ethanol]"
11,0.836,"Nc1ncc(-c2ccc(-c3ccccc3OCCO)cc2F)cn1 [Example 629, 2-{[4′-(2-Aminopyrimidin-5-yl)-3′-fluorobiphenyl-2-yl]oxy}ethanol]"
12,1.9,"Nc1cnc(-c2ccc(-c3ccccc3OC3CCNCC3)cc2F)cn1 [Example 630, 5-[3-Fluoro-2′-(piperidin-4-yloxy)biphenyl-4-yl]pyrazin-2-amine]"
13,> 10,"Nc1ncc(-c2ccc(-c3ccccc3OC3CCNCC3)cc2F)cn1 [Example 631, 5-[3-Fluoro-2′-(piperidin-4-yloxy)biphenyl-4-yl]pyrimidin-2-amine]"
14,> 10,"NCCOc1ccccc1-c1ccc(-c2cnc(N)nc2)c(F)c1 [Example 641, 5-[2′-(2-Aminoethoxy)-3-fluorobiphenyl-4-yl]pyrimidin-2-amine]"
15,> 10,"Nc1ncc(-c2ccc(-c3cccnc3OCCO)cc2F)cn1 [Example 649, 2-({3-[4-(2-Aminopyrimidin-5-yl)-3-fluorophenyl]pyridin-2-yl}oxy)ethanol]"
16,0.832,"Nc1cnc(-c2ccc(-c3cccnc3OCCO)cc2F)cn1 [Example 650, 2-({3-[4-(5-Aminopyrazin-2-yl)-3-fluorophenyl]pyridin-2-yl}oxy)ethanol]"

row,Ki [µM],Structure (SMILES)
1,0.572,"C[C@H](CO)Oc1ncccc1-c1ccc(-c2cnc(N)nc2)c(F)c1 [Example 658, (2I)-2-({3-[4-(2-Aminopyrimidin-5-yl)-3-fluorophenyl]pyridin-2-yl}oxy)propan-1-ol]"
2,~0.75,"CS(=O)(=O)Nc1ccccc1-c1ccc(-c2ccc(N)nc2)c(F)c1 [Example 659, N-(4′-(6-Aminopyridin-3-yl)-3′-fluoro-[1,1′-biphenyl]-2-yl)methanesulfonamide]"
3,~2.49,"CNS(=O)(=O)c1ccccc1-c1ccc(-c2ccc(N)nc2)c(F)c1 [Example 661, 4′-(6-Aminopyridin-3-yl)-3′-fluoro-N-methyl-[1,1′-biphenyl]-2-sulfonamide]"
4,> 10,"Nc1ncc(-c2ccc(-c3ccccc3C(=O)N3CCOCC3)cn2)cn1 [Example 677, 5-{5-[2-(Morpholin-4-ylcarbonyl)phenyl]pyridin-2-yl}pyrimidin-2-amine]"
5,> 10,"COc1ccccc1-c1ccc(-c2cnc(N)nc2)nc1 [Example 678, 5-[5-(2-Methoxyphenyl)pyridin-2-yl]pyrimidin-2-amine]"
6,> 10,"Nc1ncc(-c2ccc(-c3ccccc3S(=O)(=O)C3CC3)cn2)cn1 [Example 691, 5-{5-[2-(Cyclopropylsulfonyl)phenyl]pyridin-2-yl}pyrimidin-2-amine trifluoroacetic acid salt]"
7,~1.41,"N#Cc1ccccc1-c1ccc(-c2cnc(N)cn2)c(F)c1 [Example 701, 4′-(5-Aminopyrazin-2-yl)-3′-fluorobiphenyl-2-carbonitrile]"
8,~0.304,"Nc1cnc(-c2ccc(-c3ccccc3N3CCNC3=O)cc2F)cn1 [Example 702, 1-(4′-(5-Aminopyrazin-2-yl)-3′-fluoro-[1,1′-biphenyl]-2-yl)imidazolidin-2-one]"
9,> 10,"CC(C)(C)NS(=O)(=O)c1ccccc1-c1ccc(-c2cnc(N)nc2C#N)c(F)c1 [Example 703, 4′-(2-Amino-4-cyanopyrimidin-5-yl)-N-tert-butyl-3′-fluorobiphenyl-2-sulfonamide]"
10,> 10,"Nc1ncc(-c2ccc(-c3ccccc3S(=O)(=O)CCNC(=O)c3ccccc3)cc2F)cn1 [Example 716, N-(2-{[4′-(2-Aminopyrimidin-5-yl)-3′-fluorobiphenyl-2-yl]sulfonyl}ethyl)benzamide]"
11,> 10,"Nc1ncc(-c2ccc(-c3ccccc3S(=O)(=O)c3ncccn3)cc2F)cn1 [Example 718, 5-[3-Fluoro-2′-(pyrimidin-2-ylsulfonyl)biphenyl-4-yl]pyrimidin-2-amine]"
12,> 10,"Nc1ncc(-c2ccc(-c3ccccc3S(=O)(=O)c3cnccn3)cc2F)cn1 [Example 719, 5-[3-Fluoro-2′-(pyrazin-2-ylsulfonyl)biphenyl-4-yl]pyrimidin-2-amine]"
13,> 10,"Nc1ncc(-c2ccc(-c3ccccc3S(=O)(=O)c3ccncn3)cc2F)cn1 [Example 720, 5-[3-Fluoro-2′-(pyrimidin-4-ylsulfonyl)biphenyl-4-yl]pyrimidin-2-amine]"
14,> 10,"Nc1cc(S(=O)(=O)c2ccccc2-c2ccc(-c3cnc(N)nc3)c(F)c2)ncn1 [Example 721, 5-{2′-[(6-Aminopyrimidin-4-yl)sulfonyl]-3-fluorobiphenyl-4-yl}pyrimidin-2-amine]"
15,> 10,"Nc1ccnc(S(=O)(=O)c2ccccc2-c2ccc(-c3cnc(N)nc3)c(F)c2)n1 [Example 722, 5-{2′-[(4-Aminopyrimidin-2-yl)sulfonyl]-3-fluorobiphenyl-4-yl}pyrimidin-2-amine]"

row,Structure (SMILES),Ki [µM]
1,"Nc1ncc(-c2ccc(-c3ccccc3OCC(=O)O)cc2F)cn1 [Example 644, {[4′-(2-Aminopyrimidin-5-yl)-3′-fluorobiphenyl-2-yl]oxy}acetic acid]",> 10
2,"Nc1ccc(-c2ccc(-c3ccccc3S(N)(=O)=O)cc2F)cn1 [Example 662, 4′-(6-Aminopyridin-3-yl)-3′-fluoro-[1,1′-biphenyl]-2-sulfonamide trifluoroacetate]",~1.22
